From patent US20210355547A1, “NON-INVASIVE URINARY BIOMARKERS FOR THE DETECTION OF UROTHELIAL CARCINOMA OF THE BLADDER” (THE JOHNS HOPKINS UNIVERSITY, priority 2018, published 2021)

Columns and labels:
[1] = test system: spheroid CD24-sh and CD24-Ctrl BFTC 905, BFTC 909, and 5637 cells; experiment: Cell viability assay (MTT assay) after cisplatin treatment; assay type: cell-based; settings: 5 μM CDDP, 72 h; spheroid CD24-sh vs spheroid CD24-Ctrl cells
Method: (§1) FIG. 2A-2E. The chemoresistant and tumorigenic abilities attenuated by CD24 knockdown in BFTC 905, BFTC 909, and 5637 cell lines. (FIG. 2A) Cell viability after 5 μM cisplatin (CDDP) treatment for 72 h in the spheroid CD24-sh cells, as measured by MTT assay. Cell viability was expressed as the ratio of absorbance values of the spheroid CD24-sh cells related to the spheroid CD24-Ctrl cells considered as 1.0. Data are from three independent experiments. (FIG. 2B) An apoptosis assay of spheroid CD24-sh cells treated with 5 μM CDDP for 72 h. Upper, representative images of early apoptosis (bottom right quadrant) and late apoptosis (top right quadrant); Lower, percentage of apoptotic cells. (FIG. 2C) Western blotting analysis of ABCG2, YAP1, and CD133 in stable CD24-sh and CD24-Ctrl cells. (FIG. 2D) Limiting-dilution xenograft assays in stable spheroid CD24-sh BFTC 909 (upper) and BFTC 905 (lower) cells. Tumor growth was measured after subcutaneous injection of serially diluted spheroid cells (1×10^4, 1×10^3, or 1×10^2 cells per flank) into both flanks of NSG mice (five mice per group). SP, Spheroid. […]
Cell viability assay (MTT assay). Cell viability was measured using the 3-(4, 5-dimethyl thiazol-2-yl)-2, 5-diphenyltetrazolium bromide (MTT) Proliferation Assay Kit (ATCC; Manassas, Va., USA) according to the manufacturer's protocol. […]

[2] = test system: spheroid CD24-sh and CD24-Ctrl BFTC 905, BFTC 909, and 5637 cells; experiment: Apoptosis assay (PE Annexin V / 7-AAD flow cytometry) after CDDP; assay type: cell-based; settings: 5 μM CDDP, 72 h; spheroid cells with CD24 knockdown
Method: as §1, with “Spheroid. (FIG. 2E) Tumor initiation frequency after the xenotransplantation of spheroid CD24-sh BFTC 909 (upper) and BFTC 905 (lower) cells.” for “Spheroid.”

N.N.[Cl][Pt][Cl] [cisplatin]
sensitivity of spheroid cells to CDDP treatment (cell viability) [1]: spheroid CD24-sh cells were more sensitive to CDDP treatment than spheroid CD24-Ctrl cells | anti-apoptotic ability against CDDP treatment [2]: CD24 knockdown significantly attenuated the anti-apoptotic ability against CDDP treatment
